# Assay results published in publication PMC7284125, “Identification of annotated bioactive molecules that impair motility of the blood fluke Schistosoma mansoni” (International Journal for Parasitology: Drugs and Drug …, 2020).
# Tested on: S. mansoni schistosomulae
# Experiment: Phenotypic primary screen assay on schistosomulae (phenotype; viability by methylene blue dye exclusion)
# Assay type: cell-based
# Conditions: Schistosoma mansoni
row,SMILES,viability at 10 µM
1,CNCC[C@H](Oc1cccc2ccccc12)c1cccs1 [Duloxetine],90%

# Same assay, conditions: Schistosoma mansoni; three-day-old schistosomulae, 10 μM, 24 h; calculated 5 days post compound exposure; read-out: Viability (%)
row,SMILES,viability at 10 µM
1,Cc1ccc(Sc2ccccc2N2CCNCC2)c(C)c1 [Vortioxetine],10%
2,O=C1CCc2ccc(OCCCCN3CCN(c4cccc(Cl)c4Cl)CC3)cc2N1 [Aripiprazole],96.5%

# Target: SmD2 (Schistosoma mansoni, UniProt G4LUJ1)
# Sequence (G4LUJ1 entry or part of it): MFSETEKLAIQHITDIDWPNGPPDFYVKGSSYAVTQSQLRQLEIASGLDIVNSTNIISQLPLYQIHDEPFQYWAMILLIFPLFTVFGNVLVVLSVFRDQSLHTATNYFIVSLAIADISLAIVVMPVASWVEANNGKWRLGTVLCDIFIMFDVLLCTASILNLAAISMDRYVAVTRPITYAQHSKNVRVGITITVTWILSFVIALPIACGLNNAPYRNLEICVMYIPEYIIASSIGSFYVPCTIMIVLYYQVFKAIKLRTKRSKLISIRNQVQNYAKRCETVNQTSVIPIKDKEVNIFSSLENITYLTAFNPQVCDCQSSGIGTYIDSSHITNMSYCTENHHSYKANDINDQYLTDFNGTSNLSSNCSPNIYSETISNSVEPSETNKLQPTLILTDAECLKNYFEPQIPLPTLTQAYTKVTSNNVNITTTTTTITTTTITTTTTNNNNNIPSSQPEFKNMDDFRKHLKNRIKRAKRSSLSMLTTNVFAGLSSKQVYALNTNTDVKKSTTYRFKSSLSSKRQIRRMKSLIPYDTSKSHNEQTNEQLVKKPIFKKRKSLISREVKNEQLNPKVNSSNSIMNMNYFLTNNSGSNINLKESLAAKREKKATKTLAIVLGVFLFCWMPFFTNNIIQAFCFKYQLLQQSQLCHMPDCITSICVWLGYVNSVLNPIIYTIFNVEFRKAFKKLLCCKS
# Experiment: cell-based
# Assay type: cell-based
# Conditions: not given
row,SMILES,IC50
1,CNCC[C@H](Oc1cccc2ccccc12)c1cccs1 [Duloxetine],5.95 µM

# Same assay, conditions: HEK293, read-out: inhibition of EPN-evoked luminescence
row,SMILES,inhibition at 10 µM
1,CNCC[C@H](Oc1cccc2ccccc12)c1cccs1 [Duloxetine],≥ 50%

# Same assay, conditions: HEK293; SmD2 cells, 10 μM compound, 50 μM EPN; read-out: inhibition of EPN-evoked luminescence
row,SMILES,inhibition at 10 µM
1,Cc1ccc(Sc2ccccc2N2CCNCC2)c(C)c1 [Vortioxetine],≥ 50%

# Same assay, conditions: inhibition of EPN-evoked luminescence, SmD2 expressing HEK293 cells; read-out: IC50
row,SMILES,IC50
1,Cc1ccc(Sc2ccccc2N2CCNCC2)c(C)c1 [Vortioxetine],3.68 µM

# Tested on: S. mansoni schistosomulae
# Experiment: Motility assay on schistosomulae (pixel displacement, relative to DMSO control)
# Assay type: cell-based, Schistosoma mansoni
# Conditions: Schistosoma mansoni, 120 h, read-out: Fractional motility
# Outline: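 Motility was scored by pixel displacement from 1-min videos (10 frames/s) and compared with DMSO controls. Schistosomulae (200/well, Opti-MEM, 5% dialyzed FBS, no antibiotics) received compound at 1 or 10 μM for 24 h; selected hits were also followed at 1, 3, 6 and 12 h.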
row,SMILES,activity at 1 µM
1,CNCC[C@H](Oc1cccc2ccccc12)c1cccs1 [Duloxetine],-13%

# Same assay, conditions: Schistosoma mansoni, 120 h; Selleckchem customized library secondary screen, 24h, D5, 1 µM; read-out: Fractional motility
row,SMILES,activity at 1 µM
1,Cc1ccc(Sc2ccccc2N2CCNCC2)c(C)c1 [Vortioxetine],60%

# Same assay, conditions: Schistosoma mansoni, 120 h; schistosomulae, secondary screen, 24h exposure, read at D5, 1 µM; read-out: Fractional motility
row,SMILES,activity at 1 µM
1,O=C1CCc2ccc(OCCCCN3CCN(c4cccc(Cl)c4Cl)CC3)cc2N1 [Aripiprazole],-61%

# Same assay, conditions: Schistosoma mansoni; schistosomulae, secondary screen, 24h exposure, read at D1, 1 µM; read-out: Fractional motility
row,SMILES,activity at 1 µM
1,O=C1CCc2ccc(OCCCCN3CCN(c4cccc(Cl)c4Cl)CC3)cc2N1 [Aripiprazole],-48%

# Same assay, conditions: Selleckchem customized library secondary screen, 24h, D1, 10 µM
row,SMILES,Fractional motility
1,Cc1ccc(Sc2ccccc2N2CCNCC2)c(C)c1 [Vortioxetine],55.99

# Same assay, conditions: Selleckchem customized library secondary screen, 24h, D5, 10 µM
row,SMILES,Fractional motility
1,Cc1ccc(Sc2ccccc2N2CCNCC2)c(C)c1 [Vortioxetine],-0.42

# Same assay, conditions: schistosomulae, after 24 h exposure
row,SMILES,motility phenotype in words
1,Cc1ccc(Sc2ccccc2N2CCNCC2)c(C)c1 [Vortioxetine],high levels of hypermotility

# Same assay, conditions: schistosomulae, secondary screen, 24h exposure, read at D1, 10 µM
row,SMILES,Fractional motility
1,O=C1CCc2ccc(OCCCCN3CCN(c4cccc(Cl)c4Cl)CC3)cc2N1 [Aripiprazole],-0.15

# Same assay, conditions: schistosomulae, secondary screen, 24h exposure, read at D5, 10 µM
row,SMILES,Fractional motility
1,O=C1CCc2ccc(OCCCCN3CCN(c4cccc(Cl)c4Cl)CC3)cc2N1 [Aripiprazole],-0.56

# Tested on: naïve Glo HEK293 cells (no receptor)
# Experiment: cAMP luminescence (GloSensor) assay on naïve Glo HEK293 cells (no receptor)
# Assay type: cell-based, human
# Conditions: 50 μM EPN
# Experimental: The SmGPR2 sequence previously identified ([El-Shehabi and Ribeiro, 2010]) was codon optimized for mammalian expression and subcloned in the vector pCI-neo (Addgene, USA) using the XbaI and NotI restriction enzymes. A FLAG fusion tag ([…]) was introduced at the N-terminal end of the receptor sequence. Stable transfection of HEK293 cells (ATCC; CRL-1573) was performed using the X-tremeGENE 9 DNA transfection reagent (Sigma Aldrich). Cells were then cultured at 37 °C, 5% CO2 in Opti-MEM supplemented with 5% FBS and maintained in 400 μg/mL G418 (Sigma Aldrich) for selection of transformants. […] All cell lines expressing S. mansoni GPCRs were then transfected with the GloSensor encoding plasmid p22F (Promega) and media was supplemented with 100 μg/mL hygromycin for stable expression (ThermoFisher).
# Adherent HEK293 cells were seeded at a density of 5 x 10^4 cells/well (96-well plate) in Opti-MEM without FBS or antibiotics and incubated overnight at 37 °C and 5% CO2 prior to the assay. In place of the media, 100 μL HBSS supplemented with 0.1% bovine serum albumin (BSA), 500 μM 3-isobutyl-1-methylxanthine (IBMX, Sigma Aldrich), 20 mM HEPES (pH 7.4) and 1 mg/mL D-luciferin (Goldbio) was added to each well. After a 2 h incubation period at room temperature, luminescence background was recorded, and compounds and control ligands were added at 10X concentration. Immediately after compound addition, luminescence was read over a 45 min period to detect compounds stimulating cAMP release through receptor activation. […] For each assay, luminescence responses were recorded in triplicate and repeated with four independant cell batches. Compounds were also added to naïve Glo HEK293 cells (no receptor) and the robustness of the assay was calculated as: Z^'=1−3×(SDmax+SDmin)/Meanmax−Meanmin with max and min referring respectively to cells expressing GPCRs and Glo (no receptor) cells. Cellular viability was assessed using a CellTiter Glo 2.0 kit (Promega). Glo cells were exposed to 10 μM of each hit compound for 3 h in Opti-MEM at 37 °C, 5% CO2. An equimolar concentration of tamoxifen (Sigma Aldrich) was used as a positive control. 2X cell lysis media was then added and end-point luminescence recorded after a 10 min stabilization time.
row,SMILES,inhibition of EPN-evoked luminescence
1,Cc1ccc(Sc2ccccc2N2CCNCC2)c(C)c1 [Vortioxetine],≥ 50%
2,O=C1CCc2ccc(OCCCCN3CCN(c4cccc(Cl)c4Cl)CC3)cc2N1 [Aripiprazole],≥ 50%
3,CNCC[C@H](Oc1cccc2ccccc12)c1cccs1 [Duloxetine],≥ 50%

# Tested on: S. mansoni schistosomulae
# Experiment: Phenotypic primary screen assay on schistosomulae (phenotype; viability by methylene blue dye exclusion)
# Assay type: cell-based, Schistosoma mansoni
# Conditions: not given
# Outline: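 Parasites lacking contraction/relaxation cycles and showing dark internal granulations counted as dead. Movement and body shape were compared with DMSO-treated controls under a stereo microscope at 24 h and at five days of exposure. Larvae came from infected snails shed under light for 2 h at 32 °C.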
row,SMILES,Phenotype
1,CNCC[C@H](Oc1cccc2ccccc12)c1cccs1 [Duloxetine],granulated

# Same assay, conditions: 24 h incubation, five days
row,SMILES,effect on viability of schistosomulae in words
1,Cc1ccc(Sc2ccccc2N2CCNCC2)c(C)c1 [Vortioxetine],schistosomulicidal

# Same assay, conditions: three-day-old schistosomulae, 10 μM, 24 h; estimated 5 days post compound exposure
row,SMILES,Phenotype
1,Cc1ccc(Sc2ccccc2N2CCNCC2)c(C)c1 [Vortioxetine],"big, granulated"
2,O=C1CCc2ccc(OCCCCN3CCN(c4cccc(Cl)c4Cl)CC3)cc2N1 [Aripiprazole],granulated

# Tested on: S. mansoni adult worms
# Experiment: Motility assay on adult parasites (pixel displacement, relative to DMSO control)
# Assay type: cell-based, Schistosoma mansoni
# Conditions: secondary screen, 10 μM, D1, Female adult worms
# Outline: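 Unpaired adult worms from mice 6 weeks post-infection kept in OPTI-MEM with 5% dialyzed FBS and exposed to compounds at 1 and 10 μM for 24 h. Motility filmed 1 min at 10 frames/s, quantified by pixel displacement versus DMSO-treated worms; recovery followed up to five days after washout.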
row,SMILES,Fractional motility
1,Cc1ccc(Sc2ccccc2N2CCNCC2)c(C)c1 [Vortioxetine],2.64
2,O=C1CCc2ccc(OCCCCN3CCN(c4cccc(Cl)c4Cl)CC3)cc2N1 [Aripiprazole],0.19
3,CNCC[C@H](Oc1cccc2ccccc12)c1cccs1 [Duloxetine],0.62

# Same assay, conditions: secondary screen, 10 μM, D1, Male adult worms
row,SMILES,Fractional motility
1,Cc1ccc(Sc2ccccc2N2CCNCC2)c(C)c1 [Vortioxetine],2.15
2,O=C1CCc2ccc(OCCCCN3CCN(c4cccc(Cl)c4Cl)CC3)cc2N1 [Aripiprazole],0.50
3,CNCC[C@H](Oc1cccc2ccccc12)c1cccs1 [Duloxetine],4.31

# Same assay, conditions: secondary screen, 10 μM, D5, Female adult worms
row,SMILES,Fractional motility
1,Cc1ccc(Sc2ccccc2N2CCNCC2)c(C)c1 [Vortioxetine],0.24
2,O=C1CCc2ccc(OCCCCN3CCN(c4cccc(Cl)c4Cl)CC3)cc2N1 [Aripiprazole],-0.80
3,CNCC[C@H](Oc1cccc2ccccc12)c1cccs1 [Duloxetine],0.30

# Same assay, conditions: secondary screen, 10 μM, D5, Male adult worms
row,SMILES,Fractional motility
1,Cc1ccc(Sc2ccccc2N2CCNCC2)c(C)c1 [Vortioxetine],1.01
2,O=C1CCc2ccc(OCCCCN3CCN(c4cccc(Cl)c4Cl)CC3)cc2N1 [Aripiprazole],-0.14
3,CNCC[C@H](Oc1cccc2ccccc12)c1cccs1 [Duloxetine],0.54
